One compound from paper PMC10487456, “Canagliflozin Inhibited the Activity of Hemolysin and Reduced the Inflammatory Response Caused by Streptococcus suis” (International Journal of Molecular Sciences, 2023) can be followed below.

Assay [1] deals with T1, SLY (hemolysin) (Streptococcus suis, UniProt Q55996). The assay is described as follows: biochemical. To be noted: read-out: % inhibition at 16 μg/mL.
In assay [2] the target is T1, SLY (hemolysin). The assay is described as follows: biochemical.

T1 sequence (Q55996 28-497 limits assumed): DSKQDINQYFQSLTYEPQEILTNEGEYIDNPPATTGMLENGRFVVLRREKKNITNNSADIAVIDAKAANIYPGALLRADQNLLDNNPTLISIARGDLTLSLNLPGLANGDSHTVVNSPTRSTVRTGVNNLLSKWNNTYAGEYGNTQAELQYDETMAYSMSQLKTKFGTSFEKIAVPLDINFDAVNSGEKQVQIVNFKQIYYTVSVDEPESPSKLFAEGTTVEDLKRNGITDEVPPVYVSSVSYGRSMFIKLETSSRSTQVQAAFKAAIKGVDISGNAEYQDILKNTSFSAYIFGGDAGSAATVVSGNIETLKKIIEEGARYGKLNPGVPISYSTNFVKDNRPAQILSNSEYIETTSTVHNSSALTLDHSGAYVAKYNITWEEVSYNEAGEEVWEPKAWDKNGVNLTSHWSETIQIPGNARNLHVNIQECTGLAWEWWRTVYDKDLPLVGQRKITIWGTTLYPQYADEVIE

Take `Cc1ccc([C@@H]2O[C@H](CO)[C@@H](O)[C@H](O)[C@H]2O)cc1Cc1ccc(-c2ccc(F)cc2)s1` [canagliflozin]: the inhibition at 16 µg/mL on SLY (hemolysin) [1] was determined as 76%. The compound further displayed a dissociation constant Kd at SLY (hemolysin) [2] of 900 nM.
